For ten compounds, IC50 and Emax results are on record in patent US20190119200A1, “TERTIARY AMIDES AND METHOD OF USE” (AbbVie Inc., priority 2016, published 2019).

Bounds are passed on as bounds.

Type in all cases: cell-based
Experiment [1] has as its target T1, LPAR1 (Homo sapiens, UniProt Q92633).
T1 construct: host or cells: U2OS
Nature of the experiment: LPAR1 FLIPR Assay. The note with it: U2OS cells stably expressing LPAR1, LPA (EC80), Calcium 6 FLIPR dye; for Emax: read-out: Maximum Inhibition. Summed up: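 Calcium flux read-out (515-575 nm, FLIPR) in LPAR1-expressing U2OS cells after LPA challenge at EC80, given 3 min after compound addition; cells carried Calcium 6 dye loaded 2 h at 37° C. Eleven-point 3-fold dilutions were fitted with a four-parameter Hill equation for IC50.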

Experiment [2] deals with T1, LPAR1. Nature of the experiment: LPAR1 Arrestin Assay (arrestin reporter assay). The following applies: U2OS cells stably expressing the LPAR1 receptor, 200 nM 18:1 LPA (EC80); for Emax: read-out: Maximum Inhibition. The procedure: One day prior to the experiment, frozen U2OS cells stably expressing the LPAR1 receptor (Life Technologies, Grand Island, N.Y., #K1519A) were thawed, centrifuged at 1,000 rpm for 5 minutes to remove DMSO, and resuspended in FreeStyle™ media (Gibco, Grand Island, N.Y.). Forty microliters of cells were plated into PDL-coated 384-well plates (Greiner Bio-One, Monroe, N.C.) at 10,000 cells/well, and then the plates were incubated overnight in humidified 5% CO2 at 37° C. Test compounds were dissolved in DMSO, and 12-point, 1:3 dilution CRCs were prepared in duplicate; daughter plates were prepared by aliquoting 0.8 μL/well of test compound dilutions into 384-well plates. On the day of the assay, the daughter plates were diluted to 6× stocks using HEPES-buffered HBSS, then 10 μL of 6× test compounds were added to the cells, and the plates were incubated at 37° C. for one hour. After this 1 hour incubation, 10 μL of a 6× stock of the LPAR1 agonist, 18:1 LPA (Avanti Polar Lipids, Alabaster, Ala.), was prepared in HEPES-buffered HBSS+0.1% fatty acid-free BSA (Sigma, St. Louis, Mo.). The 6×LPA was added to all wells for a final concentration of 200 nM, which corresponds to the 18:1 LPA EC80 in this arrestin assay. The final DMSO concentration in the assay plate was 0.1%, and the final BSA concentration was 0.02%. After addition of LPA to all wells, the assay plates were incubated in humidified 5% CO2 at 37° C. for five hours. During the incubation period, 6× dye from the LiveBLAzer™-FRET B/G with CCF4-AM kit (Life Technologies, Grand Island, N.Y.) was prepared according to manufacturers' instructions. At the end of the 5 hour compound incubation, 10 μL of 6× dye was added to each well, and the assay plate was incubated for two hours in the dark at room temperature. Throughout the assay procedure, all volume additions were performed with a Biomek® NX liquid handler (Beckman Coulter, Indianapolis, Ind.). After the 2 hour dye-load, fluorescence was measured on an EnVision® Multilabel Plate Reader (Perkin Elmer, Waltham, Mass.) with an excitation filter at 409/20 nm and emission filters at 460/40 nm and 530/30 nm. Data processing was performed as recommended by the LiveBLAzer™-FRET B/G with CCF4-AM kit manual; all test compound CRCs were performed in duplicate with n≥3.
On the technique in general: A reporter such as luciferase makes a cellular process visible.

Experiment [3] concerns LPA-induced MCP-1 in NRK-49F cells. Put plainly: LPA-induced MCP-1 AlphaLISA assay. The following applies: Rattus norvegicus, final LPA 10 μM, 7 hours; for Emax: read-out: Maximum Inhibition. Summed up:
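NRK-49F rat fibroblasts, serum-starved overnight, pretreated with compound for 30 min at 37 °C (1% DMSO final), then stimulated with 10 μM LPA final. MCP-1 in the supernatant was measured by mouse/rat CCL2 AlphaLISA. IC50 values came from four-parameter logistic fits of the ratio data.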
For orientation: In Alpha technology, singlet oxygen from a donor bead excites a nearby acceptor bead.

T1 sequence (Q92633 whole entry): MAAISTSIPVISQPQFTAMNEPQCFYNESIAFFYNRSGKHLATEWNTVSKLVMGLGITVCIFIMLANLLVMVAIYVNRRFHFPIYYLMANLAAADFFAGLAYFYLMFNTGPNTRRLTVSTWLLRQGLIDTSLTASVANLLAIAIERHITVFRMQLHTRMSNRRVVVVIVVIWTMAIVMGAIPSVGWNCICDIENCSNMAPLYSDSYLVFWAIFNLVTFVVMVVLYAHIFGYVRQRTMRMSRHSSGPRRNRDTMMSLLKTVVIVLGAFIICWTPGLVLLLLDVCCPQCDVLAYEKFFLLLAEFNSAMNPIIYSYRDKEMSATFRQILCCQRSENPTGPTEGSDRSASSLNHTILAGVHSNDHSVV

The term IC50 denotes the midpoint of a concentration-inhibition curve. For the compound `COc1cc(C(=O)N(CCCCC(=O)O)CCCc2ccccc2)cc(OC)c1F` [Example 99, 5-[(4-fluoro-3,5-dimethoxybenzoyl)(3-phenylpropyl)amino]pentanoic Acid], the concentration for half-maximal inhibition (IC50) in experiment [1] is 67 nM; in experiment [2], 3250 nM; in experiment [3] it was 7850 nM. In addition, the Emax in experiment [1] came to 82%; in experiment [2], 112%; in experiment [3], 56%.

On to `COc1cc(C(=O)N(CCCc2ccc(F)cc2F)CCOCC(=O)O)cc(OC)c1C` [Example 130, (2-{[3-(2,4-difluorophenyl)propyl](3,5-dimethoxy-4-methylbenzoyl)amino}ethoxy)acetic Acid], for which the values for the 50% inhibitory concentration (IC50) in experiment [1], in experiment [2] and in experiment [3] were 41 nM, 760 nM and 1790 nM, respectively. For the same compound, the Emax was 83% in experiment [1], 119% in experiment [2] and 83% in experiment [3].

Regarding `COc1cc(OC)cc(C(=O)N(CCCCC(=O)O)CCCc2ccccc2F)c1` [Example 134, 5-{(3,5-dimethoxybenzoyl)[3-(2-fluorophenyl)propyl]amino}pentanoic Acid], the IC50 in experiment [1] was 74 nM; in experiment [2] it was 2240 nM; in experiment [3], greater than 10000 nM. Also, the Emax in experiment [1] was 77%; in experiment [2], 125%; in experiment [3] it was 37%.

As for `COc1cc(C(=O)N(CCCc2ccc(F)cc2)CCOCC(=O)O)cc(OC)c1C` [Example 139, (2-{(3,5-dimethoxy-4-methylbenzoyl)[3-(4-fluorophenyl)propyl]amino}ethoxy)acetic Acid], the values for the IC50 in experiment [1], in experiment [2] and in experiment [3] were 46 nM, 464 nM and 3150 nM, respectively. The Emax in experiment [1] stood at 78%; in experiment [2], 125%; in experiment [3], 72%.

Consider `COc1cc(C(=O)N(CCCCC(=O)O)CCCc2c(F)cccc2F)cc(OC)c1C` [Example 147, 5-{[3-(2,6-difluorophenyl)propyl](3,5-dimethoxy-4-methylbenzoyl)amino}pentanoic Acid], for which the IC50 is 31 nM in experiment [1], 178 nM in experiment [2] and 665 nM in experiment [3]. Besides, the Emax in experiment [1] came out at 93%; in experiment [2], 122%; in experiment [3], 86%.

Take `COc1cc(C(=O)N(CCCc2ccccc2)CCCC(O)C(=O)O)cc(OC)c1C` (stereo not drawn) [Example 151, 5-[(3,5-dimethoxy-4-methylbenzoyl)(3-phenylpropyl)amino]-2-hydroxypentanoic Acid]: the IC50 in experiment [1] was determined as 37 nM; in experiment [2] it was 665 nM; in experiment [3], 1630 nM. The Emax came to 79% in experiment [1], 114% in experiment [2] and 79% in experiment [3].

Take `COc1cc(C(=O)N(CCCc2ccc(C)o2)CCCC(C)(O)C(=O)O)cc(OC)c1C` (stereo not drawn) [Example 174, 5-{(3,5-dimethoxy-4-methylbenzoyl)[3-(5-methylfuran-2-yl)propyl]amino}-2-hydroxy-2-methylpentanoic Acid]: the values for the concentration for half-maximal inhibition (IC50) in experiment [1], in experiment [2] and in experiment [3] were 33 nM, 991 nM and 5430 nM, respectively. Moreover, the Emax in experiment [1] came to 73%; in experiment [2], 118%; in experiment [3], 65%.

As for `COc1cc(C(=O)N(CCCCC(=O)O)CCCc2ccc(C)o2)c(F)c(OC)c1F` [Example 175, 5-{(2,4-difluoro-3,5-dimethoxybenzoyl)[3-(5-methylfuran-2-yl)propyl]amino}pentanoic Acid], the IC50 in experiment [1] is 48 nM; in experiment [2], 5680 nM; in experiment [3], 3940 nM. The Emax in experiment [1] was determined as 73%; in experiment [2], 119%; in experiment [3] it was 67%.

`COc1cc(C(=O)N(CCCCC(=O)O)CCCc2ccc(C)o2)cc(OC)c1C1CC1` [Example 178, 5-{(4-cyclopropyl-3,5-dimethoxybenzoyl)[3-(5-methylfuran-2-yl)propyl]amino}pentanoic Acid]: the values for the 50% inhibitory concentration (IC50) in experiment [1], in experiment [2] and in experiment [3] were 45 nM, 1560 nM and 1970 nM, respectively. For the same compound, the values for the Emax in experiment [1], in experiment [2] and in experiment [3] were 84%, 122% and 77%, respectively.

For `COc1cc(C(=O)N(CCCc2ccccc2)CCOC(=O)NS(C)(=O)=O)cc(OC)c1C` [Example 184, 2-[(3,5-dimethoxy-4-methylbenzoyl)(3-phenylpropyl)amino]ethyl (methanesulfonyl)carbamate], the IC50 in experiment [1] was found to be 131 nM; in experiment [2], 1550 nM; in experiment [3], 5560 nM. For the same compound, the Emax in experiment [1] was determined as 66%; in experiment [2], 99%; in experiment [3] it was 58%.
